Experimental data published in patent publication US6228886A, “Nutritional formulations containing water-miscible lipid derivatives as antibacterial agents” (Abbott Laboratories, priority 2000, dated 2001).

Assays:
RSV [1] = test: In vivo prevention of RSV infection in cotton rats; settings: 1000 mg/L Carrageenan in M. Similac®
From the text: Cotton rats have been used as an RSV research animal model for about 20 years. The cotton rat has a similar pathological change in the lung to that observed in human infants when infected by RSV (Prince et al., 1978). […] It has also been observed that the intravenously-administered RSV-IgG has to reach a titer of ≥1:100 concentration to show the preventive effect (Prince et al., 1985). The same serum concentration of RSV-IgG in human infants is protective (Groothuis et al., 1993, 1995). Due to these similarities, the FDA has recommended the cotton rat as an appropriate model for RSV studies.
To have a repeatable RSV nasal and lung infection, a high RSV dose (10^4 pfu/animal) was intra-nasally inoculated to all animals. The inoculum (100 μl) consisted of 50 μl of RSV stock solution and 50 μl of test product. […] In addition, some studies were performed in an infant formula in which the intact protein was replaced with a casein hydrolysate (Alimentum®). All animals consumed the regular rodent chow diet throughout the experimental period. Four days after RSV challenge, all animals were sacrificed. Their lung and nasal tissue were isolated for determination of RSV titers. As a positive control, a 5% RSV-IgG was always used. […]

RSV [2] = settings: carrageenan removed from the formulation; cited from earlier work

For Carrageenan, the “RSV titer in Lung” value (RSV [1]) is listed as 3.06 ± 0.16 Log10 PFU/g tissue, the “RSV titer in Nose” value (RSV [1]) is listed as 3.78 ± 0.47 Log10 PFU/g tissue and the “anti-RSV activity, previously found” value (RSV [2]) is listed as “anti-RSV activity”.
